Source: patent publication US9326513B2, “Fungicidal compositions” (Syngenta Participations AG, priority 2011, dated 2016)
Values joined by “and” are separate entries in the source; they are usually repeats but may differ in a detail not shown here. Equal values may be shown once. Read-outs that look alike come from different tables or passages of the source.

What was measured:
[1] = tested on: Blumeria graminis f. sp. tritici (Erysiphe graminis f. sp. tritici); experiment: Blumeria graminis f. sp. tritici / wheat / leaf disc preventative (powdery mildew on wheat); type: in vivo; settings: foliar, compared to untreated control leaf disks, read-out: disease control
Method in brief: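 Preventative leaf-disc test: compound (200 ppm) was sprayed onto cv. Kanzler wheat segments, which were dusted with conidia from infected plants 1 day after application. After incubation at 20° C and 60% rh, disease control relative to untreated segments was rated 6-8 days after application.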

[2] = tested on: Puccinia recondita f. sp. tritici; experiment: Puccinia recondita f. sp. tritici / wheat / leaf disc preventative (brown rust); type: in vivo; settings: foliar, compared to untreated control leaf disks, read-out: disease control
Excerpt: Puccinia recondita f. sp. tritici/Wheat/Leaf Disc Preventative (Brown Rust) Wheat leaf segments cv. Kanzler were placed on agar in multiwell plates (24-well format) and sprayed with the formulated test compound diluted in water. The leaf disks were inoculated with a spore suspension of the fungus 1 day after application.

[3] = tested on: Puccinia recondita f. sp. tritici; experiment: Puccinia recondita f. sp. tritici / wheat / leaf disc curative (brown rust); type: in vivo; settings: foliar, compared to untreated control leaf disks, read-out: disease control
Experimental: Puccinia recondita f. sp. tritici/Wheat/Leaf Disc Curative (Brown Rust) Wheat leaf segments cv. Kanzler are placed on agar in multiwell plates (24-well format). The leaf segments are inoculated with a spore suspension of the fungus. Plates were stored in darkness at 19° C. and 75% rh. The formulated test compound diluted in water was applied 1 day after inoculation.

[4] = tested on: Monographella nivalis (syn. Microdochium nivale, Fusarium nivale); experiment: Monographella nivalis (snow mould, foot rot of cereals), PDB microtiter plate, visual after 72 hrs; type: cell-based
[5] = tested on: Botrytis cinerea; experiment: Botrytis cinerea (gray mould), PDB microtiter plate, visual after 72 hrs; type: cell-based; settings: Botrytis cinerea; for inhibition at 0.00390625 ppm: rate 0.00390625 ppm; for inhibition at 0.0078125 ppm: rate 0.0078125 ppm; for inhibition at 0.015625 ppm: rate 0.015625 ppm; for inhibition at 0.03125 ppm: rate 0.03125 ppm; for inhibition at 0.03125 ppm / inhibition at 0.0625 ppm: read-out: Activity (%); for inhibition at 0.0625 ppm: rate 0.0625 ppm; for inhibition at 0.125 ppm: rate 0.125 ppm; for inhibition at 0.25 ppm: rate 0.25 ppm; for inhibition at 0.5 ppm: rate 0.5 ppm; for inhibition at 1 ppm: rate 1 ppm; for inhibition at 2 ppm: rate 2 ppm
[6] = tested on: Septoria tritici; experiment: Septoria tritici (leaf blotch), PDB microtiter plate, visual after 72 hrs; type: cell-based; settings: Zymoseptoria tritici, single compound; for inhibition at 0.25 ppm: read-out: Activity (%)
[7] = tested on: Mycosphaerella arachidis (y. Cercospora arachidicola); experiment: Mycosphaerella arachidis (brown leaf spot of groundnut), PDB microtiter plate, visual after 5-6 days; type: cell-based; settings: single compound
[8] = tested on: Septoria tritici; experiment: Septoria tritici (leaf blotch), YBG microtiter plate, photometric growth inhibition after 6 days; type: cell-based; settings: Zymoseptoria tritici, 144 h, solo; for inhibition of growth at 0.078125 ppm: rate 0.078125 ppm; for inhibition of growth at 0.15625 ppm: rate 0.15625 ppm, read-out: Activity; for inhibition of growth at 0.3125 ppm: rate 0.3125 ppm; for inhibition of growth at 1.25 ppm: rate 1.25 ppm
Excerpt: (§1) In the following Tables ‘Activity (%)’ means the assessed experimental activity (% disease control in this test when compared to untreated control leaf disks under the same conditions, which show extensive disease development) and “P” is the expected value calculated (expected) activity according to the COLBY formula (see above). The column headed ‘S?’ indicates whether or not synergy was observed, with ‘y’ meaning that synergy was observed.
Septoria tritici (Leaf Blotch):
After placing solutions of the test compounds (containing 0.2% DMSO) into a microtiter plate (96-well format), an equal amount of the nutrient broth (YBG) was added to each of the well. Finally the fungal spore solution was added. The test plates were incubated at 20° C. The inhibition of growth was determined photometrically after 6 days and the activity calculated in relation to untreated control.

[9] = tested on: Sclerotinia sclerotiorum; experiment: Sclerotinia sclerotiorum on oilseed rape, preventive treatment; type: in vivo; settings: solo, 1 day preventive, 11 days after application
Excerpt: as §1
Sclerotinia sclerotiorum on Oilseed Rape, Preventive Treatment
The compound activity was tested under 1 day preventive conditions. Oilseed rape plants with 3 unfolded leafs were sprayed with a track sprayer and 200 I/ha spray volume with the test compounds, either solo or in tankmix as shown in the table below.
1 day after application the plants were infested with a solution of Sclerotinia sclerotiorum mycelium. The plants were placed under plastic hoods and high humidity conditions in a climate chamber at 14 h day/10 h night cycle and 15° C. Disease infestation was evaluated visually 11 days after application and average activity calculated in relation to disease severity on untreated check.

[10] = tested on: Fusarium graminearum and Fusarium culmorum; type: in vivo; settings: solo, 200 g a.i./ha; wheat, 1 day preventive, 9 days after application
[11] = tested on: Phakopsora pachyrhizi (triazole tolerant soybeanrust strain); experiment: Phakopsora pachyrhizi on soybean, preventive treatment; type: in vivo; settings: solo, soybean leaf discs, 1 day preventive, 11 days after application
[12] = tested on: Septoria tritici; experiment: Septoria tritici on wheat, preventive treatment; type: in vivo; settings: solo, wheat Riband, 1 day preventive, 18 days after application
[13] = Monographella nivalis, applied alone, 0.015625 ppm
[14] = Monographella nivalis, applied alone, 0.03125 ppm
[15] = Monographella nivalis, applied alone, 0.0625 ppm
[16] = Monographella nivalis, applied alone, 0.125 ppm
[17] = Monographella nivalis, applied alone, 2 ppm
[18] = Mycosphaerella arachidis, read-out: Activity (%)

CCN(C)/C=N/c1cc(Br)c(OC(C)c2cc(F)cc(F)c2)nc1C (stereo not drawn) [Q.113]
pest or weed control at 200 ppm [1]: ≥ 50%
pest or weed control at 200 ppm [2]: ≥ 50%
pest or weed control at 200 ppm [3]: ≥ 50%
inhibition at 0.00390625 ppm ([4]; Monographella nivalis, applied alone, 0.00390625 ppm): 0%
inhibition at 0.0078125 ppm ([4]; Monographella nivalis, applied alone, 0.0078125 ppm): 0%
inhibition at 0.015625 ppm [4, 13]: 0%
inhibition at 0.03125 ppm [4, 14]: 0%
inhibition at 0.0625 ppm [4, 15]: 0%
inhibition at 0.125 ppm [4, 16]: 0%
inhibition at 0.25 ppm ([4]; Monographella nivalis, applied alone, 0.25 ppm): 0%
inhibition at 2 ppm [4, 17]: 70%
inhibition at 2 ppm ([4]; Monographella nivalis, applied alone, rate 2 ppm): 70%
Activity (%) ([4]; applied alone, 0.5 ppm): 20%
Activity (%) ([4]; applied alone, 1 ppm): 20%
Activity (%) ([4]; applied alone, rate 0.125 ppm): 2%
Activity (%) ([4]; applied alone, rate 0.25 ppm): 2%
Activity (%) ([4]; applied alone, rate 0.5 ppm): 20%
Activity (%) ([4]; applied alone, rate 1 ppm): 20%
inhibition at 0.00390625 ppm ([5]; alone): 0%
inhibition at 0.0078125 ppm ([5]; alone): 0%
inhibition at 0.015625 ppm ([5]; alone): 0%
inhibition at 0.03125 ppm ([5]; alone): 0%
inhibition at 0.0625 ppm ([5]; alone): 0%
inhibition at 0.125 ppm ([5]; alone): 0%
inhibition at 0.25 ppm ([5]; alone): 0%
inhibition at 0.5 ppm ([5]; alone): 0%
inhibition at 1 ppm ([5]; alone): 0%
inhibition at 2 ppm ([5]; alone): 0%
inhibition at 0.00390625 ppm [6]: 0%
inhibition at 0.0078125 ppm [6]: 0%
inhibition at 0.015625 ppm [6]: 0%
inhibition at 0.03125 ppm [6]: 0%
inhibition at 0.0625 ppm [6]: 0%
inhibition at 0.125 ppm [6]: 0%
inhibition at 0.25 ppm [6]: 0%
inhibition at 0.5 ppm [6]: 0%
inhibition at 1 ppm [6]: 0%
inhibition at 2 ppm [6]: 0%
inhibition at 0.0078125 ppm ([7]; Mycosphaerella arachidis, 0.0078125 ppm, read-out: Activity (%)): 0%
inhibition at 0.015625 ppm [7, 18]: 0%
inhibition at 0.25 ppm [7, 18]: 70%
inhibition at 0.5 ppm [7, 18]: 70%
Activity (%) ([7]; 0.125 ppm): 50%
inhibition of growth at 0.0195312 ppm ([8]; rate 0.01953125 ppm): 15%
inhibition of growth at 0.0390625 ppm ([8]; rate 0.0390625 ppm): 28%
inhibition of growth at 0.078125 ppm [8]: 31%
inhibition of growth at 0.15625 ppm [8]: 42%
inhibition of growth at 0.3125 ppm [8]: 34%
inhibition of growth at 0.625 ppm ([8]; rate 0.625 ppm): 39%
inhibition of growth at 1.25 ppm [8]: 42%
inhibition of growth at 10 ppm ([8]; rate 10 ppm): 63%
Activity ([9]; rate 25 ppm): 2%
Activity ([9]; rate 50 ppm): 2%
Activity ([9]; rate 100 ppm): 39%
Activity [10]: 23%
Activity ([11]; rate 0.5 g ai/ha): 1%
Activity ([11]; rate 2 g ai/ha): 25%
Activity ([12]; 1 g a.i./ha): 1%
Activity ([12]; 3 g a.i./ha): 0%
Activity ([12]; 81 g a.i./ha): 53%

CCN(C)/C=N/c1cc(Br)c(OC2Cc3ccccc3C2)nc1C [Q.062]
pest or weed control at 200 ppm [1]: ≥ 50%
pest or weed control at 200 ppm [2]: ≥ 50%
pest or weed control at 200 ppm [3]: ≥ 50%
inhibition at 0.015625 ppm [4, 13]: 0%
inhibition at 0.03125 ppm [4, 14]: 0%
inhibition at 0.0625 ppm [4, 15]: 0%
inhibition at 0.125 ppm [4, 16]: 0%
inhibition at 2 ppm [4, 17]: 20%
inhibition at 0.015625 ppm ([4]; Monographella nivalis, single compound, rate 0.015625 ppm): 0%
inhibition at 0.03125 ppm ([4]; Monographella nivalis, single compound, rate 0.03125 ppm): 0%
inhibition at 0.0625 ppm ([4]; Monographella nivalis, single compound, rate 0.0625 ppm): 0%
inhibition at 0.125 ppm ([4]; Monographella nivalis, single compound, rate 0.125 ppm): 0%
inhibition at 0.25 ppm ([4]; Monographella nivalis, single compound, rate 0.25 ppm): 20%
inhibition at 0.5 ppm ([4]; Monographella nivalis, single compound, rate 0.5 ppm): 50%
inhibition at 1 ppm ([4]; Monographella nivalis, single compound, rate 1 ppm): 70%
inhibition at 0.00390625 ppm ([5]; alone): 0%
inhibition at 0.0078125 ppm ([5]; alone): 0%
inhibition at 0.015625 ppm ([5]; alone): 0%
inhibition at 0.03125 ppm ([5]; alone): 0%
inhibition at 0.0625 ppm ([5]; alone): 0%
inhibition at 0.1258 ppm ([5]; alone, rate 0.1258 ppm): 0%
inhibition at 0.25 ppm ([5]; alone): 0%
inhibition at 0.5 ppm ([5]; alone): 0%
inhibition at 1 ppm ([5]; alone): 0%
inhibition at 2 ppm ([5]; alone): 0%
inhibition at 0.015625 ppm ([5]; single compound): 0%
inhibition at 0.03125 ppm ([5]; single compound): 0%
inhibition at 0.0625 ppm ([5]; single compound): 0%
inhibition at 0.125 ppm ([5]; single compound): 0%
inhibition at 0.25 ppm ([5]; single compound): 0%
inhibition at 0.5 ppm ([5]; single compound): 0%
inhibition at 1 ppm ([5]; single compound): 0%
inhibition at 2 ppm ([5]; single compound): 0%
inhibition at 0.00390625 ppm [6]: 0%
inhibition at 0.0078125 ppm [6]: 0%
inhibition at 0.015625 ppm [6]: 0%
inhibition at 0.03125 ppm [6]: 0%
inhibition at 0.0625 ppm [6]: 0%
inhibition at 0.125 ppm [6]: 0%
inhibition at 0.25 ppm [6]: 0%
inhibition at 0.5 ppm [6]: 0%
inhibition at 1 ppm [6]: 0%
inhibition at 2 ppm [6]: 0%
inhibition at 0.015625 ppm [7, 18]: 0%
inhibition at 0.03125 ppm ([7]; Mycosphaerella arachidis, 0.03125 ppm, read-out: Activity (%)): 0%
inhibition at 0.0625 ppm ([7]; Mycosphaerella arachidis, 0.0625 ppm, read-out: Activity (%)): 0%
inhibition at 0.125 ppm ([7]; Mycosphaerella arachidis, 0.125 ppm, read-out: Activity (%)): 0%
inhibition at 0.25 ppm [7, 18]: 0%
inhibition at 0.5 ppm [7, 18]: 0%
inhibition at 1 ppm ([7]; Mycosphaerella arachidis, 1 ppm): 70%
inhibition at 2 ppm ([7]; Mycosphaerella arachidis, 2 ppm): 70%
inhibition of growth at 0.00390625 ppm ([8]; rate 0.00390625 ppm): 32%
inhibition of growth at 0.0078125 ppm ([8]; rate 0.0078125 ppm): 31%
inhibition of growth at 0.078125 ppm [8]: 29%
inhibition of growth at 0.15625 ppm [8]: 39%
inhibition of growth at 0.3125 ppm [8]: 37%
inhibition of growth at 1.25 ppm [8]: 51%
inhibition of growth at 2.5 ppm ([8]; rate 2.5 ppm): 48%
inhibition of growth at 5 ppm ([8]; rate 5 ppm): 64%
Activity ([9]; rate 25 ppm): 0%
Activity ([9]; rate 50 ppm): 2%
Activity ([9]; rate 100 ppm): 26%
Activity [10]: 17%
Activity ([11]; rate 0.5 g ai/ha): 0%
Activity ([11]; rate 2 g ai/ha): 13%
Activity ([12]; 1 g a.i./ha): 2%
Activity ([12]; 3 g a.i./ha): 8% and 6%
Activity ([12]; 27 g a.i./ha): 50% and 71%
Activity ([12]; 81 g a.i./ha): 61%
